Assay results taken from article PMC4307180, “Overcoming myelosuppression due to synthetic lethal toxicity for FLT3-targeted acute myeloid leukemia therapy” (eLife, 2014).

Experiments:
purified FLT3 WT = biological target: T1, purified FLT3 WT (Homo sapiens, UniProt P36888); assay: Radiolabeled purified kinase assay (Figure 1B)
T1 sequence (P36888 27-993): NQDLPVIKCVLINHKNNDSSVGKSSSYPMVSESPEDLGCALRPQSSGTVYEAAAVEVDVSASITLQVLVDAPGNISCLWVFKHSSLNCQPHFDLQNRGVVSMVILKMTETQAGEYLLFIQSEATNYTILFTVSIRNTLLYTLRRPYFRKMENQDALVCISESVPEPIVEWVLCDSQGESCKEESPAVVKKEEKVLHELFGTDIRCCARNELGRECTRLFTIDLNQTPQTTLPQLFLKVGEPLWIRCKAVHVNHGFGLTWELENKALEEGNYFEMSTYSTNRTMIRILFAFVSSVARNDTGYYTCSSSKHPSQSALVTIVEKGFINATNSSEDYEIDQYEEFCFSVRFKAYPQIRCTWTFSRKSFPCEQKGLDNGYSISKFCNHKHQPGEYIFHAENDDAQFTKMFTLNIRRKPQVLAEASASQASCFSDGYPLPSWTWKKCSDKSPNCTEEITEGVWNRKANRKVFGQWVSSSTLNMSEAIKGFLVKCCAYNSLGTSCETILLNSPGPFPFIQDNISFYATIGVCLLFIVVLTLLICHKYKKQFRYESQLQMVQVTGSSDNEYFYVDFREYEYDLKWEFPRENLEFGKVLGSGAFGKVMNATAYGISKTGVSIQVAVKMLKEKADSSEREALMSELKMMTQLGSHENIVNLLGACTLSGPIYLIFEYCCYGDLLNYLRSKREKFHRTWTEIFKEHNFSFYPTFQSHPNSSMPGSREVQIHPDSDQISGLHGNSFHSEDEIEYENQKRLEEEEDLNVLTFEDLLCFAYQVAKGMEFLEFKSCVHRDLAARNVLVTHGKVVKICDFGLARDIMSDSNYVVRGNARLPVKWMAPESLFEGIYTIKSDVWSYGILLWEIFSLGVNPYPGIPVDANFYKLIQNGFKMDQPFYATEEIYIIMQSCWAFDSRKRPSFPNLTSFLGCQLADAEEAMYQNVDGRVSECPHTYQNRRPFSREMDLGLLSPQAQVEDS

HMC1.1 cells (KIT V560G) = conditions: proliferation, Figure 2A and reference values; ref de Jong and Zon, 2005; Guo et al., 2007; Kampa-Shittenhelm et al., 2013; cited from earlier work
CSF1R = CSF1R (Homo sapiens, UniProt P07333); assay: Reaction Biology Corp kinase assay at Km-ATP (Figure 1C), CSF1R
PDGFRα = PDGFRα (Homo sapiens, UniProt P16234); assay: Reaction Biology Corp kinase assay at Km-ATP (Figure 1C), PDGFRα
KIT = KIT (Homo sapiens, UniProt P10721); assay: Reaction Biology Corp kinase assay at Km-ATP (Figure 1C), KIT
PDGFRβ = PDGFRβ (Homo sapiens, UniProt P09619); assay: Reaction Biology Corp kinase assay at Km-ATP (Figure 1C), PDGFRβ
FLT3 = biological target: T2, FLT3 (Homo sapiens, UniProt P36888); assay: Reaction Biology Corp kinase assay at Km-ATP (Figure 1C), FLT3
T2 sequence (P36888 27-993): T1 sequence (P36888 27-993)

Sequence of KIT (P10721 26-976): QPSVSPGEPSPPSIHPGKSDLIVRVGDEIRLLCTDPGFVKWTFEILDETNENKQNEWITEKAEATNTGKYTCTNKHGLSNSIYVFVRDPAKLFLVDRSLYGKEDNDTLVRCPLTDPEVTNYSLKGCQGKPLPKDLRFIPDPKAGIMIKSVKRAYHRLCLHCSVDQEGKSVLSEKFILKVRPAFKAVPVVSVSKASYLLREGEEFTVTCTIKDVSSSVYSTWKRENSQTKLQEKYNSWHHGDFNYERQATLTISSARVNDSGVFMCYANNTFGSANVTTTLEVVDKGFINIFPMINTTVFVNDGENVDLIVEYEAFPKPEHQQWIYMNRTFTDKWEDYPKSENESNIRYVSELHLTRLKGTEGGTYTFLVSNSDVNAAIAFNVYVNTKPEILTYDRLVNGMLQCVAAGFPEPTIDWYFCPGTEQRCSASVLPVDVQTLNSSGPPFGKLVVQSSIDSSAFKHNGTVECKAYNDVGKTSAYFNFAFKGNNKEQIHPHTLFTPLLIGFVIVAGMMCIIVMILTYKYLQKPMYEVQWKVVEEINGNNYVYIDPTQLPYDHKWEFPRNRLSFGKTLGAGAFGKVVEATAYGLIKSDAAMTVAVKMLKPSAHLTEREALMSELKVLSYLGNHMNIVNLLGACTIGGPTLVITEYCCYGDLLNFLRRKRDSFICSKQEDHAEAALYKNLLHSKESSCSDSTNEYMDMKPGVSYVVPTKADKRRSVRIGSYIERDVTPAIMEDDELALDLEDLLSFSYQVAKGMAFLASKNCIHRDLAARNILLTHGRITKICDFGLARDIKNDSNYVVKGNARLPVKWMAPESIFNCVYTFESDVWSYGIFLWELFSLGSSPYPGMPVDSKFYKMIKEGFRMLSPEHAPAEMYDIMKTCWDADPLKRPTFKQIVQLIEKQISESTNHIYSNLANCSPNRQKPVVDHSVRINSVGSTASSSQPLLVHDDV
Sequence of PDGFRα (P16234 24-1089): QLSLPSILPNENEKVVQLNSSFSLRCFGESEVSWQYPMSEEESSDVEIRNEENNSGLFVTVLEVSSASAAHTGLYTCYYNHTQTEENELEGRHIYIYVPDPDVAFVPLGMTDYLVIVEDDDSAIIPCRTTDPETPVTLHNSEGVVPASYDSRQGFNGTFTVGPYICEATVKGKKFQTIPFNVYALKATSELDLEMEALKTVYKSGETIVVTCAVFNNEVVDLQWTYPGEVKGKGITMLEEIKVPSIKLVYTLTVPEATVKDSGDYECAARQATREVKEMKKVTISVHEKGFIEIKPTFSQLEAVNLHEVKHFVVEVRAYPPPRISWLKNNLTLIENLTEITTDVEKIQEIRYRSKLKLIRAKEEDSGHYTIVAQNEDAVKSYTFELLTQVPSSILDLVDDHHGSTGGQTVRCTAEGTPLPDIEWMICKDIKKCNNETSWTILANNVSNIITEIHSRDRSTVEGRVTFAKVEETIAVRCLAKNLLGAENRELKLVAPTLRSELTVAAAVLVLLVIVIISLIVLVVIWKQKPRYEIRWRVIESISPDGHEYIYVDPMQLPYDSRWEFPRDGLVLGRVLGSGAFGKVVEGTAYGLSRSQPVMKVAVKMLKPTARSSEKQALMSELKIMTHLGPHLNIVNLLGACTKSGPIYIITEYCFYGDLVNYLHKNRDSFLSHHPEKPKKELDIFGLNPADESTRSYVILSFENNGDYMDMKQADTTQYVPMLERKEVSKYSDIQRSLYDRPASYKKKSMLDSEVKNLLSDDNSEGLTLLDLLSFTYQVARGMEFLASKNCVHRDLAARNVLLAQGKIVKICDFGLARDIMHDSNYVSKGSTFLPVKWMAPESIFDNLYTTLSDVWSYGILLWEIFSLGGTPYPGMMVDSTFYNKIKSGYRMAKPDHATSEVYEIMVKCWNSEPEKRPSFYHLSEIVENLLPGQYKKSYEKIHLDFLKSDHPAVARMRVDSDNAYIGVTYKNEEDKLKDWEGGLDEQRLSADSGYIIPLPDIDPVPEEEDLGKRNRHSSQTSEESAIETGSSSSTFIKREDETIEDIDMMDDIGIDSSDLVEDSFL
Sequence of PDGFRβ (P09619 33-1106): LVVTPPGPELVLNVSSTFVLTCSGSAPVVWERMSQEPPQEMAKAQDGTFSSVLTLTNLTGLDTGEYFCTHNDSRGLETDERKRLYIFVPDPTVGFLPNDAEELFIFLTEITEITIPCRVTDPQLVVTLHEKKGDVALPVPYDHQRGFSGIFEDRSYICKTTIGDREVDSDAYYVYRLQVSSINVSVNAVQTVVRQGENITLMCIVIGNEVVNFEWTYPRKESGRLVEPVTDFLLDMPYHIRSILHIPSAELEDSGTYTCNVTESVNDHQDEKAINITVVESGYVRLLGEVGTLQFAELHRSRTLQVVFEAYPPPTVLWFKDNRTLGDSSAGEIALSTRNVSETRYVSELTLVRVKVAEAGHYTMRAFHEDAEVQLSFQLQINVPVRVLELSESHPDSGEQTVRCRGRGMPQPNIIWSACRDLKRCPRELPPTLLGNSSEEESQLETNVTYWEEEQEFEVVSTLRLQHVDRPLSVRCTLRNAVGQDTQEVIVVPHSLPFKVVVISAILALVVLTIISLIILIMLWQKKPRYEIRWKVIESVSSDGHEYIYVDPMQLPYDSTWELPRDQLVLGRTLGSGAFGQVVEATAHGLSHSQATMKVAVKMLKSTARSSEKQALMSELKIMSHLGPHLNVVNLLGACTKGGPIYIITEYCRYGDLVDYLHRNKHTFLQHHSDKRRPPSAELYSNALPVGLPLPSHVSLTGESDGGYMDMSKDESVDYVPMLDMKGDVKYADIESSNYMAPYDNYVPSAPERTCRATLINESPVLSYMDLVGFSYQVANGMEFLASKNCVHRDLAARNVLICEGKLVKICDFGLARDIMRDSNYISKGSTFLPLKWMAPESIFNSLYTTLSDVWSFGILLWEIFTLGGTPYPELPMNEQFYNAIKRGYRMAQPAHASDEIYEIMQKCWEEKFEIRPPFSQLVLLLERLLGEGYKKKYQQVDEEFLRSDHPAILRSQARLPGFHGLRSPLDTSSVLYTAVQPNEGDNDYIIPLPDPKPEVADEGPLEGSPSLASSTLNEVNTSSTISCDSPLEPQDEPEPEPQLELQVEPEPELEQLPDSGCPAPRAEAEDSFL
Sequence of CSF1R (P07333 20-972): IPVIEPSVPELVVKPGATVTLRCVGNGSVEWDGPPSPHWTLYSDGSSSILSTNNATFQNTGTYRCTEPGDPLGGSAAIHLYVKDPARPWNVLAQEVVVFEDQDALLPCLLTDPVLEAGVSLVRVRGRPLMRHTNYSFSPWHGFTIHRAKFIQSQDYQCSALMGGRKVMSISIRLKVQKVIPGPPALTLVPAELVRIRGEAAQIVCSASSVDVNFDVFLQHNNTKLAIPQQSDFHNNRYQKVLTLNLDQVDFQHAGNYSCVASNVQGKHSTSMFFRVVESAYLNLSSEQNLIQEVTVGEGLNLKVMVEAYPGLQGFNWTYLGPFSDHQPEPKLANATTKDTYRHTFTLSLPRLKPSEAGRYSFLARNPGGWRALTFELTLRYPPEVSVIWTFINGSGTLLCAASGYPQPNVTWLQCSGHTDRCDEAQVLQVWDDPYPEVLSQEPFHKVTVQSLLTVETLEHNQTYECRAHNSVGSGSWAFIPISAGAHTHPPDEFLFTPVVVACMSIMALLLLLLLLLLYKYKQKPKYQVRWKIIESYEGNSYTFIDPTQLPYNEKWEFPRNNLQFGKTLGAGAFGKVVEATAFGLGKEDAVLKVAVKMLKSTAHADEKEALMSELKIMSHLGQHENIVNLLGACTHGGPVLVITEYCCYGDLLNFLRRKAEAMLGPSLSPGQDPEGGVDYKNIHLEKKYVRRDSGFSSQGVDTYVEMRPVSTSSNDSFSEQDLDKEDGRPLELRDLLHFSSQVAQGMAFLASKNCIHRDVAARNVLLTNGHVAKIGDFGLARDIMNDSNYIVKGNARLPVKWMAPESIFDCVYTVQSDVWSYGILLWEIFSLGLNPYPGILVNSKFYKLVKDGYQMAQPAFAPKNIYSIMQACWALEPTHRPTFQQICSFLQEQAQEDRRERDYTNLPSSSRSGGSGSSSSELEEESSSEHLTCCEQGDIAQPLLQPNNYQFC

| IC50 (purified FLT3 WT) [nM] | Compound | other results |
| --- | --- | --- |
| > 10000 | CCC[C@@H]1NC(=O)c2c1c1c3ccccc3[nH]c1c1[nH]c3ccccc3c21 [Star 3] |  |
| > 10000 | CCCC[C@@H]1NC(=O)c2c1c1c3ccccc3[nH]c1c1[nH]c3ccccc3c21 [Star 4] |  |
|  | CNC(=O)c1cc(Oc2ccc(NC(=O)Nc3ccc(Cl)c(C(F)(F)F)c3)cc2)ccn1 [Sorafenib] | inhibition of FLT3- versus KIT-driven cell lines (HMC1.1 cells (KIT V560G)): equipotent inhibition of FLT3 and KIT-driven cell lines |
| 10 ± 4 | C[C@@H]1NC(=O)c2c1c1c3ccccc3n(CCCCN)c1c1[nH]c3ccccc3c21 [Star 23] | IC50 (CSF1R): > 10000 nM; IC50 (PDGFRα): 2000 nM; IC50 (KIT): 6550 nM; KIT/FLT3 IC50 ratio (KIT; ratio of Figure 1C IC50s): 728; IC50 (PDGFRβ): 2800 nM; IC50 (FLT3): 9 ± 1 nM |
| 193 ± 28 | C[C@@H]1NC(=O)c2c1c1c3ccccc3[nH]c1c1[nH]c3ccccc3c21 [Star 22] |  |
| 15 ± 7 | C[C@@H]1NC(=O)c2c1c1c3ccccc3[nH]c1c1c2c2ccccc2n1CCCN [Star 27-iso] |  |
| > 10000 | CC(C)C[C@@H]1NC(=O)c2c1c1c3ccccc3[nH]c1c1[nH]c3ccccc3c21 [Star 1] |  |
|  | Cc1ccc(C(=O)Nc2ccc(CN3CCN(C)CC3)c(C(F)(F)F)c2)cc1C#Cc1cnc2cccnn12 [Ponatinib] | inhibition of FLT3- versus KIT-driven cell lines (HMC1.1 cells (KIT V560G)): equipotent inhibition of FLT3 and KIT-driven cell lines |
| 2000 | CC(C)[C@@H]1NC(=O)c2c1c1c3ccccc3[nH]c1c1[nH]c3ccccc3c21 [Star 6] |  |
| > 10000 | C#CC[C@@H]1NC(=O)c2c1c1c3ccccc3[nH]c1c1[nH]c3ccccc3c21 [Star 9] |  |
| 2000 | CC[C@@H]1NC(=O)c2c1c1c3ccccc3[nH]c1c1[nH]c3ccccc3c21 [Star 8] |  |
| > 10000 | CC(C)(C)[C@@H]1NC(=O)c2c1c1c3ccccc3[nH]c1c1[nH]c3ccccc3c21 [Star 7] |  |
